In patent US20090137496A1, “Use of Active Ingredients Containing Hydroxystilbene for Preventing and/or Treating Osteoporosis” (MATSUSHITA ELECTRIC INSUTRIAL CO., LTD., priority 2005, published 2009):
“Also recorded” adds a separate entry of the source.

Assays:
[1] = target: T1, ERα (Homo sapiens, UniProt P03372); assay: ERα activation, luciferase reporter gene in U2OS-ERα osteosarcoma cells; assay type: cell-based; settings: U2OS stably transfected with ERα, 24 h
T1 construct: host or cells: U2OS-ERα (human osteosarcoma), stably transfected, pSG5 vector
T1 sequence (P03372 1-595): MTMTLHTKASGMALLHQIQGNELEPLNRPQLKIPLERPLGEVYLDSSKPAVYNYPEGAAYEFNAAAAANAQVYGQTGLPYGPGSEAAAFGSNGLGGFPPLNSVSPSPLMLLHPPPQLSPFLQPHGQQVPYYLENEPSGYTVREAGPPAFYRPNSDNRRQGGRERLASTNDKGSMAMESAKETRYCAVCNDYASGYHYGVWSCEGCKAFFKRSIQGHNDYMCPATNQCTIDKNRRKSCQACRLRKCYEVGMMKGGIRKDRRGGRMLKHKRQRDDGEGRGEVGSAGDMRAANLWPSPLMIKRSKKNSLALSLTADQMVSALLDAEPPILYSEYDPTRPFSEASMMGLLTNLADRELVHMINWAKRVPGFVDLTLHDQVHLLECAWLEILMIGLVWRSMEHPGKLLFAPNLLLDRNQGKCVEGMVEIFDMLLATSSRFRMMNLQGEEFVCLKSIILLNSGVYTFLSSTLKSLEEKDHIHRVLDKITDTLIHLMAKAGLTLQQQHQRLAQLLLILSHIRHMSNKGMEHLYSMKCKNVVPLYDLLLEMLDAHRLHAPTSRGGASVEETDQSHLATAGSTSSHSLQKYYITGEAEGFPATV
Method: U2OS cells are human, epithelially organized osteosarcoma cells originally isolated in 1964 from the tibia of a child by J. Ponten and E. Saksela (Ponten and Saksela 1967: Two established in vitro cell lines from human mesenchymal tumours, Int. J. Cancer 2: 434-447).
A suitable medium for the cells is DMEM/F12 (Dulbecco's modified Eagle's Medium), to which 10% fetal calf serum was added for culturing the cells, and 5% fetal calf serum was added for the actual experiment. The latter was previously made steroid-free (DCC medium) using dextran-coated activated carbon (dextran-coated charcoal; DCC). Incubation took place at 37° C. with 5% v/v CO2. In order to ensure comparability between the individual experiments, the passages of the cells used for the experiments never exceeded 20 after thawing from liquid nitrogen.
Besides native U2OS cells, use was made of U2OS-ERα cells (Schering A G, Berlin) which were stably transfected with ERα (pSG5 vector, Stratagene) and merely required transfection with the reporter gene (ERE)2-tk-Luc (pGL3 basic vector, Promega). […]
After the cells were treated with the test or control substances for 24 h it was possible to measure the luciferase activity as reporter gene using a kit from Promega, as stated by the manufacturer. The protein content was determined using the BCA® kit (Sigma).

[2] = Accumulation of ERr 731 ingredients in dog plasma, 100/300/1000 mg/kg/day, day 1; assay type: in vivo, dog (beagle); settings: male and female dogs, ERr 731 100, 300, 1000 mg/kg/day, day 1
Method: (§1) These plasma samples were processed as follows: 500 μl of plasma were mixed with 25 μl of an internal standard working solution (2.5 ng/μl rhaponticin or rhapontigenin in methanol) and then mixed with 500 μl of isotonic NaCl solution and 2.5 ml of diethyl ether/butanol (9/1; v/v). After shaking and centrifugation (10 minutes at 4600 rpm), about 2 ml of the supernatant were removed and dried under a stream of nitrogen (at 60° C.). The pellet was taken up in 50 μl of methanol. Addition of 200 μl of distilled water was followed by renewed mixing, and 200 μl were pipetted into autosampler tubes (light-protected). 30 μl of the samples were injected for analysis into an LC-MS/MS system (PE Sciex API 3000). Chromatographic separation of the analytes took place on a Phenomenex Polymer X column with a gradient of an ammonium buffer solution and an acetonitrile/methanol mixture as mobile phase.
On day 1, 5 ml of blood were taken from the animals after 0, 0.5, 1, 2, 4, 8 and 24 hours in each case, and plasma was obtained. The analysis as described in section a) was carried out thereon in order to detect rhaponticin, deoxyrhaponticin, rhapontigenin, deoxyrhapontigenin, resveratrol and piceatannol in blood. The results of the test are depicted in FIG. 2a.

[3] = Dissolving tests with ERr 731 in ethanol and glycerol; assay type: physicochemical
[4] = Pharmacokinetics of ERr 731 ingredients in the blood of a volunteer after oral intake (plasma LC-MS/MS); assay type: in vivo, human; settings: for detection in the blood: oral 10 tablets = 40 mg ERr 731, plasma
Method: Subsequently, 10 ml of blood was taken at various times (as indicated in FIG. 1) and the plasma was obtained by centrifugation.
as §1

[5] = Solubility statements; assay type: physicochemical
From the text: Use is made of this for its isolation. Since, besides other organic acids, the root in particular has a high content of oxalic acid (⅔ in water-soluble and ⅓ in bound form), this must be neutralized during the isolation in order to prevent the pH drifting into the acidic range and thus to inhibit premature precipitation of the rhaponticin. This is achieved by using calcium oxide. The latter is employed as quicklime solution with a pH of 12.4-12.6.
Hydroxypropylmethylcellulose (hypromellose USP) or another gel former is allowed to swell with 2-10% by weight in purified water. […] The amount of glycerol may be up to 50% of the weight of the gel. […] If necessary, preservatives (e.g. sorbic acid and its salts) can be added to the gel. Adjustment of the pH is also possible. As alternative to glycerol it is also possible to use 30-86% by volume ethanol.

[6] = target: T2, ERβ (Homo sapiens, UniProt Q92731); assay: ERβ activation in the osteosarcoma cell line U2OS; assay type: cell-based
T2 construct: host or cells: U2OS (human osteosarcoma)
T2 sequence (Q92731 whole entry): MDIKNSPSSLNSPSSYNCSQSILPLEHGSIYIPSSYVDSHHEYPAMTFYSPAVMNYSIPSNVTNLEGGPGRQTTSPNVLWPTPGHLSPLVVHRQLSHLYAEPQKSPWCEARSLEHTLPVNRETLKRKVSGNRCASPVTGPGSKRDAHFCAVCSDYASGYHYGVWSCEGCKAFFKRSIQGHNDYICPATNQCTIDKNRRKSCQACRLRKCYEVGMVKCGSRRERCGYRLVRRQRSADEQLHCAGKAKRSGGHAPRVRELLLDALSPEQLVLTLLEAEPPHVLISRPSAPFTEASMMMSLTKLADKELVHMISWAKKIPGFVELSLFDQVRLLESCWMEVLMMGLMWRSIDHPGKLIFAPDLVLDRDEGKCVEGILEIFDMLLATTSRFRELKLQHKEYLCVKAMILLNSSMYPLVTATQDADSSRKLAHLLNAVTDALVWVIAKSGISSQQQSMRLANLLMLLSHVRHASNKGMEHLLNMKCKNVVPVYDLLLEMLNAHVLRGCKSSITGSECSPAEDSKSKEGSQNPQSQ

[7] = Test A: 200 mg of dry extract in 50 ml of glycerol R
[8] = Test B: 200 mg of dry extract in 50 ml of ethanol 30% R
[9] = Test C: 200 mg of dry extract in 50 ml of ethanol 50% R
[10] = Test D: 200 mg of dry extract in 50 ml of ethanol 86% R

Compound	activation of ER-α [1]	detection / accumulation (AUC 0-24 h) in dog plasma [2]	content found in solution [3, 7]	dissolved, of theory [3, 7]	content found in solution [3, 8]	dissolved, of theory [3, 8]	content found in solution [3, 9]	dissolved, of theory [3, 9]	content found in solution [3, 10]	dissolved, of theory [3, 10]	detection in the blood [4]	time of maximum in the blood ([4]; oral 40 mg ERr 731) [h]	solubility in aqueous solutions with an alkaline pH range ([5]; alkaline pH)	behaviour in the acidic pH range ([5]; pH 3.4-3.6)	activation of ERβ [6]
Oc1ccc(/C=C/c2cc(O)cc(O)c2)cc1 [resveratrol, Resveratrol]	no significant effects; also recorded: no activation														
COc1ccc(/C=C/c2cc(O)cc(O[C@@H]3O[C@H](CO)[C@@H](O)[C@H](O)[C@H]3O)c2)cc1 [deoxyrhaponticin, 3,5′-Dihydroxy-4′-methoxystilbene 3-O-β-D-glucopyranoside]		dose-dependent accumulation	27.1% deoxyrhaponticin	(90.6% of theory)	25.2% deoxyrhaponticin	(84.2% of theory)	29.0% deoxyrhaponticin	(97.0% of theory)	29.5% deoxyrhaponticin	(98.7% of theory)					
COc1ccc(/C=C/c2cc(O)cc(O)c2)cc1O [rhapontigenin, 3,3′,5-Trihydroxy-4′-methoxystilbene]		undetectable									could not be found and not				
COc1ccc(C=Cc2cc(O)cc(O[C@@H]3O[C@H](CO)[C@@H](O)[C@H](O)[C@H]3O)c2)cc1O [rhaponticin, 3,3′,5-Trihydroxy-4′-methoxystilbene 3-O-β-D-glucopyranoside]		dose-dependent accumulation	55.1% rhaponticin	(89.0% of theory)	52.2% rhaponticin	(84.3% of theory)	58.8% rhaponticin	(95.0% of theory)	59.8% rhaponticin	(96.6% of theory)	detected; also recorded: detectable	3 to 4	readily soluble	precipitated	
Oc1cc(O)cc(/C=C/c2ccc(O)c(O)c2)c1 [piceatannol, Piceatannol (astringenin)]	no significant effects; also recorded: no activation														activate relatively specifically only the ERβ
